According to patent EP0536603A1, “N-Methyl-nimodipine, process for its preparation, and its use as cerebral vasodilator” (BAYER AG, priority 1991, dated 1993):

How the values were obtained:
[1] = Plasma levels after oral administration; assay type: in vivo
Ratten = assay: Rat swim test (Porsolt), antidepressant effect; assay type: in vivo; settings: rats
Procedure: Die vorzügliche Eignung von N-Methyl-Nimodipin als Prodrug für Nimodipin zeigt sich auch in seiner antidepressiven Wirkung. Im Rattenschwimmtest (vgl. R.D. Porsolt et al., European Journal of Pharmacology 47; 379 bis 391) zeigen Ratten, die 20 mg der erfindungsgemäßen Verbindung per os appliziert bekommen, eine um ca. 20 % reduzierte Immobilitätsphase im Vergleich zur Kontrolle (n = 6).

COCCOC(=O)C1=C(C)N(C)C(C)=C(C(=O)OC(C)C)C1c1cccc([N+](=O)[O-])c1 (racemic) [N-Methyl-nimodipin, (±)-1,2,6-Trimethyl-4-(3-nitrophenyl)-1,4-dihydropyridin-3,5-dicarbonsäure-isopropyl-2-methoxyethyl-ester]
Plasmaspiegel von Nimodipin und bekannten Nimodipinmetaboliten ([1]; oral administration of N-Methyl-nimodipin, after 15 minutes, compared with plasma levels after multiple administration of corresponding amounts of Nimodipin): mindestens so hoch sind wie die entsprechenden Plasmaspiegel nach Mehrfachapplikation entsprechender Nimodipinmengen | Plasmakonzentration an unverändertem N-Methyl-Nimodipin ([1]; oral administration, same time point (15 minutes), relative to the plasma levels of Nimodipin and metabolites): etwa doppelt so hohe Plasmakonzentration | reduzierte Immobilitätsphase im Vergleich zur Kontrolle (Ratten; 20 mg per os, n = 6): ca. 20%

COCCOC(=O)C1=C(C)NC(C)=C(C(=O)OC(C)C)C1c1cccc([N+](=O)[O-])c1 (racemic) [Nimodipin, (±)2,6-Dimethyl-4-(3-nitrophenyl)-1,4-dihydropyridin-3,5-dicarbonsäure-isopropyl-2-methoxyethyl-ester]
Immobilitätsphase im Rattenschwimmtest, in words (Ratten; corresponding amount of Nimodipin, compared with N-Methyl-Nimodipin): vergleichbare Ergebnisse
